# Data taken from patent publication US8648100B2, “Roflumilast for the treatment of pulmonary hypertension” (Takeda GmbH, priority 2005, dated 2014).
# Like-named read-outs stand apart in the source and are kept apart here.
# What was measured:
# Format in all cases: in vivo, adult male Wistar rats
# [1] = test system: chronic hypoxia-induced pulmonary arterial hypertension in rats; settings: for PAP: mean ± SEM; for RV/LV + S: right ventricular hypertrophy index; for Muscularization: distal pulmonary arteries
# Method: (§1) The objective of the pharmacological investigation was to characterize the effect of orally administered Roflumilast at 0.5 mg kg^−1 d^−1 and 1.5 mg kg^−1 d^−1 on the increase in mean PAP and RV/LV+S ratio as well as distal arteriolar muscularization triggered by chronic hypoxia or monocrotalin (MCT) in rats. Hypoxia- or MCT-induced pulmonary hypertension in rats represent widely accepted animal models to study the potential of investigative drugs to reverse chronic pulmonary hypertension based on pulmonary vascular remodelling. In the MCT setting Roflumilast was administered both in preventive and curative paradigms.
# (§2) Experiments were performed with adult male Wistar rats (200-250 g) according to institutional guidelines abiding to national and international regulations.
# Rats were exposed to chronic hypoxia (10% O2) in a ventilated chamber (500-liter volume, Flufrance, Cachan, France). To establish the hypoxic environment, the chamber was flushed with a mixture of room air and nitrogen, and the gas was recirculated. The environment within the chamber was monitored using an oxygen analyzer (Oxiquant M, EnviTeC—Wismar, Germany). Carbon dioxide was removed by self-indicating soda lime granules. Excess humidity was prevented by cooling of the recirculation circuit. The chamber temperature was maintained at 22-24° C. The chamber was opened every other day for 1 hour to clean the cages and replenish food and water supplies. Normoxic control rats were kept in the same room with identical light-dark cycle. Rats exposed to chronic hypoxia were randomly assigned to three groups (8-10 animals per group): the first group received Roflumilast at 0.5 mg kg^−1 d^−1, the second group received Roflumilast at 1.5 mg kg^−1 d^−1, the third group received vehicle (methocel). A group not exposed to hypoxia served as control. Roflumilast or vehicle were administered once daily by gavage over 15 days of exposure to hypoxia.
# (§3) At the end of the treatment period rats were anaethesized with sodium pentobarbital (60 mg/kg, i.p.). A polyvinyl catheter was introduced into the right jugular vein and pushed through the right ventricle into the pulmonary artery. Another polyethylene catheter was inserted into the right carotid artery. After measurement of pulmonary (PAP) and systemic arterial pressures (SAP), the thorax was opened and the left lung immediately removed and frozen in liquid nitrogen. The heart was dissected and weighed for calculation of the right ventricular hypertrophy index (ratio of right ventricular free wall weight over sum of septum plus left ventricular free wall weight; RV/LV+S). The right lung was fixed in the distended state with formalin buffer. After routine processing and paraffin embedding, multiple sections from each lobe were stained with haemotoxylin and eosin. In each rat, 60 intraacinar arteries were analyzed and categorized as muscular (fully or partially) or nonmuscular to assess the degree of muscularization. In addition, intraacinar fully muscularized arteries were evaluated for measurements of medial wall thickness which was calculated and expressed as follows: index (%)=(External diameter−internal diameter)/External diameter×100%.
# (§4) The data are expressed as means±SEM. A nonparametric Mann-Whitney test was used for comparisons between two groups. Comparisons of data at various times after MCT injection or of various treatment groups were performed using a nonparametric Kruskal-Wallis test followed by Dunn's test when significant. To compare the degree of pulmonary vessels muscularization between groups, we used a non parametric Mann-Whitney or a Kruskal-Wallis test after ordinal classification of the vessels as non muscular, partially muscular, or fully muscular.
# [2] = test system: monocrotaline (MCT)-induced pulmonary arterial hypertension in rats; assay: Monocrotaline (MCT)-induced pulmonary hypertension in rats, preventive treatment paradigm; settings: for PAP: mean ± SEM; for Muscularization: distal pulmonary arteries; for RV/LV + S: right ventricular hypertrophy index
# Method: as §1, §2
# (§5) Rats were randomly assigned to three groups (8-10 animals in each group): two groups received Roflumilast 0.5 and 1.5 mg kg^−1 d^−1, respectively; and one group received vehicle. In the preventive treatment paradigm Roflumilast or vehicle were given once daily by gavage for 21 days starting immediately after a single subcutaneous injection of MCT (60 mg kg^−1). A group not receiving MCT served as control. In a curative approach rats were left untreated for 21 days following MCT (60 mg/kg s.c.) and than randomly divided into two groups, one received roflumilast (1.5 mg/kg/d) p.o. and the other vehicle, from day 21 to day 42.
# as §3, §4
# [3] = test system: monocrotaline (MCT)-induced pulmonary arterial hypertension in rats (curative approach); assay: Monocrotaline (MCT)-induced pulmonary hypertension in rats, curative approach (treatment day 21 to day 42)
# Method: as §5, §3, §4
# In a curative approach Roflumilast (1.5 mg/kg/d) p.o. or vehicle were administered beginning at day 21 following MCT i.e. when pulmonary vascular remodeling and consequently augmented PAP and right ventricular hypertrophy were manifest. After another 3 weeks (i.e. at day 42) PAP was measured and rats were sacrificed to assess RV/LV+S ratio and muscularization of distal pulmonary arteries.
# [4] = Hypoxia 15 days + 0.5 mg/kg Roflumilast once daily by gavage
# [5] = Hypoxia 15 days + 1.5 mg/kg Roflumilast once daily by gavage
# [6] = MCT + 0.5 mg/kg Roflumilast for 21 days
# [7] = MCT + 1.5 mg/kg Roflumilast for 21 days
# [8] = conclusion for pulmonary hypertension triggered by hypoxia or monocrotaline in rats
# [9] = Day 42, Roflumilast 1.5 mg/kg/d p.o. starting day 21 after MCT
smiles,measurement,setting,value
"O=C(Nc1c(Cl)cncc1Cl)c1ccc(OC(F)F)c(OCC2CC2)c1 [Roflumilast, 3-cyclopropyl-methoxy-4-difluoromethoxy-N-(3,5-dichloropyrid-4-yl)benzamide]",PAP,[1]; [4],28 ± 1.8 mm Hg
same,RV/LV + S,[1]; [4],37.8 ± 2.3%
same,Muscularization,[1]; Hypoxia 15 days + 0.5 mg/kg Roflumilast,31.8 ± 2%
same,PAP,[1]; [5],25.5 ± 1.8 mm Hg
same,RV/LV + S,[1]; [5],30.5 ± 0.8%
same,Muscularization,[1]; Hypoxia 15 days + 1.5 mg/kg Roflumilast,18.5 ± 2%
same,PAP,[2]; MCT 60 mg/kg s.c. + 0.5 mg/kg Roflumilast once daily by gavage for 21 days,29.3 ± 1.3 mm Hg
same,PAP,[2]; MCT 60 mg/kg s.c. + 1.5 mg/kg Roflumilast once daily by gavage for 21 days,21.4 ± 2.0 mm Hg
same,Muscularization,[2]; [6],62.7 ± 5.4%
same,RV/LV + S,[2]; [6],38.9 ± 1.6%
same,Muscularization,[2]; [7],30.3 ± 8.2%
same,RV/LV + S,[2]; [7],31.3 ± 1.8%
same,heart rate,[2]; [8],unaffected
same,systemic arterial pressure,[2]; [8],unaffected
same,PAP,[3]; [9],23.6 ± 0.7 mmHg
same,RV/LV + S,[3]; [9],33.8 ± 0.9%
same,Muscularization,"[3]; Day 42, Roflumilast 1.5 mg/kg/d p.o. starting day 21 after MCT, distal pulmonary arteries",36.4 ± 2.4%
same,survival rate (animals alive at day 42),"[3]; Roflumilast 1.5 mg/kg/d from day 21, 17 of 24 rats, vehicle 54%",71%
same,reduction of the proportion of fully muscularized arterioles,"[3]; at day 42, Roflumilast 1.5 mg/kg/d from day 21",> 50%
same,Medial wall thickness index of the fully muscularized pulmonary arterioles,"[3]; at day 42, Roflumilast 1.5 mg/kg/d from day 21, vehicle 52±4%",18±2%
same,ratio of completely obliterated arterioles,"[3]; at day 42, Roflumilast 1.5 mg/kg/d from day 21, vehicle 66±3%",30±5%
